Experimental data reported in PubChem BioAssay (NCI).
Values joined by “and” are separate entries in the source; they are usually repeats but may differ in a detail not shown here. Identical values can stand only once.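 The compound was tested at five concentrations on cells cultured in 96-well plates, with a 48-hour exposure period. Abbreviation: GI50, concentration required for 50% inhibition of growth. TGI denotes the concentration required for complete inhibition of growth.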

What was measured:
Test in all cases: growth of human tumour cells (NCI), 48 h
NCI-H522 lung = system: NCI-H522 lung
NCI-H226 lung = system: NCI-H226 lung
SNB-75 CNS = system: SNB-75 CNS
RPMI-8226 leukemia = system: RPMI-8226 leukemia
PC-3 prostate = system: PC-3 prostate
TK-10 renal = system: TK-10 renal
SF-295 CNS = system: SF-295 CNS
CAKI-1 renal = system: CAKI-1 renal
KM12 colon = system: KM12 colon
A549 NSCLC = system: A549 NSCLC

SMILES	GI50 (NCI-H522 lung)	TGI (NCI-H522 lung)	GI50 (NCI-H226 lung)	TGI (NCI-H226 lung)	GI50 (SNB-75 CNS)	TGI (SNB-75 CNS)	GI50 (RPMI-8226 leukemia)	TGI (RPMI-8226 leukemia)	GI50 (PC-3 prostate)	TGI (PC-3 prostate)	GI50 (TK-10 renal)	TGI (TK-10 renal)	GI50 (SF-295 CNS)	TGI (SF-295 CNS)	GI50 (CAKI-1 renal)	TGI (CAKI-1 renal)	GI50 (KM12 colon)	TGI (KM12 colon)	GI50 (A549 NSCLC)	TGI (A549 NSCLC)
O=C1c2cccc3c([N+](=O)[O-])ccc(c23)C(=O)N1CCCCl	4.34 µM	> 10 µM	2.83 µM	> 10 µM	2.86 µM	> 10 µM	4.61 µM	> 10 µM	7.49 µM	> 10 µM	> 10 µM	> 10 µM	> 10 µM	> 10 µM	> 10 µM	> 10 µM	6.11 µM	> 10 µM	> 10 µM	> 10 µM
CC[C@]12C=CCN3CC[C@@]4(c5ccc(OC)cc5N(C)[C@H]4[C@@](O)(C(=O)OC)[C@@H]1OC(=O)CCCC[P+](c1ccccc1)(c1ccccc1)c1ccccc1)[C@@H]32	0.295 µM	1.77 µM	2.12 µM	9.74 µM	0.357 µM	2.08 µM	0.332 µM	2.11 µM	0.391 µM	7.77 µM	2.79 µM	9.66 µM	2.65 µM	9.04 µM	3.61 µM	13.7 µM	0.44 µM	1.85 µM	1.86 µM	10.2 µM
CC(C)(C)n1nc(C2CC2)cc1NC(=O)Nc1ccc(Cl)cc1	–	> 100 µM	–	> 100 µM	–	> 100 µM	–	> 100 µM	–	> 100 µM	–	> 100 µM	–	> 100 µM	–	> 100 µM	–	> 100 µM	–	> 100 µM
COc1ccc2c3c(ccc2c1)NC(C(=O)O)CC3 (stereo unspecified)	–	> 100 µM	–	> 100 µM	–	> 100 µM	–	54.1 µM	–	> 100 µM	–	> 100 µM	–	> 100 µM	–	> 100 µM	–	> 100 µM	–	> 100 µM
CN(C)C(=O)C(NCCO)c1ccccc1 (stereo unspecified)	–	> 100 µM	–	> 100 µM	–	> 100 µM	–	59.7 µM	–	> 100 µM	–	> 100 µM	–	> 100 µM	–	> 100 µM	–	> 100 µM	–	> 100 µM
Cc1ccc(C(=O)Nc2ccc(CN3CCN(C)CC3)c(C(F)(F)F)c2)cc1C#Cc1cnc(N)c2ccc(C#N)cc12	0.605 µM	> 25.2 µM	0.471 µM	> 50 µM	0.0468 µM	13.4 µM	1.08 µM	19.4 µM	2.09 µM	13.8 µM	0.625 µM	5.75 µM	8.85 µM	> 50 µM	0.0865 µM	8.48 µM	0.304 µM	17.4 µM	0.917 µM	12.8 µM
O=C(/C=C/c1ccccc1)Nc1ncc(Cc2ccccc2)s1	0.112 µM	3.83 µM	1.16 µM	> 20.8 µM	0.138 µM	1.99 µM	0.309 µM	> 28 µM	0.275 µM	> 100 µM	1.34 µM	> 46.4 µM	0.202 µM	1.96 µM	0.0902 µM	> 50.2 µM	0.149 µM	13 µM	0.322 µM	> 55.1 µM
COc1ccc(NC(=O)COc2ccccc2)c(C(N)=O)c1	0.812 µM	13.3 µM	20.9 µM	> 100 µM	0.398 µM	11.2 µM	1.93 µM	> 55.2 µM	0.712 µM	> 100 µM	18.3 µM	> 100 µM	0.644 µM	16.5 µM	1.09 µM	> 100 µM	0.52 µM	> 50.3 µM	1.09 µM	> 100 µM
NNC(=O)C(O)C(O)C(O)CO (stereo unspecified)	–	> 100 µM	–	> 100 µM	–	> 100 µM	–	> 100 µM	–	> 100 µM	–	> 100 µM	–	> 100 µM	–	> 100 µM	–	> 100 µM	–	> 100 µM
C=C(c1ccc(OC)c(/C=C/C(=O)c2cc(OC)c(OC)c(OC)c2)c1)c1cc(OC)c(OC)c(OC)c1	1.1 µM	5.63 µM	1.41 µM	3.29 µM	0.892 µM	7.08 µM	0.453 µM	3.06 µM	1.3 µM	5.31 µM	2.59 µM	7.9 µM	2.9 µM	14.9 µM	1.28 µM	10.5 µM	1.16 µM	2.72 µM	1.81 µM	4.51 µM
COc1ccc2c(c1)O/C(=C\c1ccc([N+](=O)[O-])o1)C2=O	1.25 µM	2.57 µM	3.44 µM	23.6 µM	2.24 µM	8.26 µM	0.367 µM	2.33 µM	2.14 µM	> 25.5 µM	2.13 µM	9.49 µM	2.47 µM	11.6 µM	0.452 µM	2.12 µM	1.37 µM	3.42 µM	2.43 µM	8.04 µM
N=C(N)c1ccc(CS(=O)(=O)F)cc1	> 100 µM	> 100 µM	> 100 µM	> 100 µM	> 100 µM	> 100 µM	–	–	> 100 µM	> 100 µM	> 100 µM	> 100 µM	> 100 µM	> 100 µM	> 100 µM	> 100 µM	> 100 µM	> 100 µM	> 100 µM	> 100 µM
COc1ccc(C2CC(c3ccc4ccccc4c3)=NN2/C=C2\SC(=S)N(NC(=O)Cc3ccccc3Nc3c(Cl)cccc3Cl)C2=O)cc1 (stereo unspecified)	0.372 µM	4.76 µM	1.14 µM	> 32.3 µM	0.257 µM	1.4 µM	0.309 µM	1.78 µM	0.714 µM	> 54 µM	3.57 µM	43.2 µM	0.724 µM	> 32.7 µM	0.392 µM	> 40 µM	0.37 µM	> 33.5 µM	0.507 µM	> 47.2 µM
CS(=O)(=O)c1nccc(-c2c(-c3cccc(OCc4ccccc4)c3)nc3sccn23)n1	9.12 µM	> 100 µM	12.1 µM	> 100 µM	> 28.5 µM	> 100 µM	9.24 µM	> 32.3 µM	6.35 µM	> 26.8 µM	53.2 µM	> 100 µM	> 100 µM	> 100 µM	4.58 µM	> 100 µM	4.64 µM	9.98 µM	> 71.1 µM	> 100 µM
Cc1cc(C)nc(NS(=O)(=O)c2ccc(Nc3nc4nc(NCc5ccccc5)nc(-c5ccc(O)cc5)c4c(=O)[nH]3)cc2)n1	2.61 µM	22.8 µM	55.8 µM	> 100 µM	64.6 µM	> 100 µM	> 100 µM	> 100 µM	19.8 µM	> 100 µM	28 µM	> 100 µM	16.7 µM	95 µM	57.2 µM	> 100 µM	15.5 µM	> 100 µM	18.9 µM	> 100 µM
CN(Cc1ccccc1)c1ncnc2ccc(Br)cc12	23.1 µM	> 100 µM	13.8 µM	39.1 µM	–	–	3.26 µM	13.1 µM	11.7 µM	33.4 µM	5.68 µM	19.8 µM	13.5 µM	28.1 µM	4.37 µM	17.6 µM	11.9 µM	25.5 µM	17.5 µM	45.8 µM
CC/C=C\C[C@H](O)C/C=C1/C(=O)C=C[C@@H]1C/C=C\CCCC(=O)OCCS(=O)(=O)c1ccccc1	1.76 µM	4.13 µM	2.69 µM	6.39 µM	17.2 µM	88.8 µM	2.7 µM	8.25 µM	3.83 µM	10.9 µM	5.58 µM	17.3 µM	3.74 µM	14.1 µM	3.86 µM	13.7 µM	2.09 µM	6.05 µM	6.04 µM	25.8 µM
OCCNC(=S)Nc1ccc(-c2nc(N3C[C@H]4CC[C@@H](C3)O4)c3cccn3n2)cc1	0.029 µM	3.37 µM	0.0305 µM	0.714 µM	< 0.0124 µM	0.264 µM	0.0371 µM	1.47 µM	0.0284 µM	8.13 µM	0.0269 µM	0.399 µM	0.0328 µM	0.265 µM	0.132 µM	> 37.8 µM	0.0987 µM	12.6 µM	0.0856 µM	2.75 µM
CC(C)C[C@H](NC(=O)[C@H](Cc1ccccc1)NC(=O)c1cnccn1)B(O)O	0.00143 µM	< 0.215 µM and 0.00414 µM	< 0.01 µM and 0.00089 µM	< 0.01 µM and 0.00206 µM	0.00232 µM	0.0266 µM and 0.00698 µM	0.00085 µM	–	0.0125 µM and 0.00364 µM	0.197 µM and 0.0952 µM and 0.106 µM	0.00164 µM	< 0.0693 µM and 0.0129 µM	0.00215 µM	–	0.00148 µM	–	0.00229 µM	0.0367 µM and 0.00812 µM	< 0.0112 µM and 0.00362 µM	5.02 µM and 0.615 µM
O=C1/C(=N/N=C(c2ccccc2)c2ccccc2)c2ccccc2-c2ccccc21	–	> 100 µM	–	> 100 µM	–	> 100 µM	–	–	–	> 100 µM	–	> 100 µM	–	> 100 µM	–	> 100 µM	–	> 100 µM	–	> 100 µM
COc1ccc(/C=C(/C(=O)N2CCN(c3ccc(C)cc3)CC2)c2cc(OC)c(OC)c(OC)c2)cc1N	0.168 µM	> 100 µM	0.352 µM	> 100 µM	0.509 µM	> 100 µM	0.284 µM	> 33.7 µM	0.312 µM	> 100 µM	4.77 µM	> 100 µM	0.287 µM	> 100 µM	0.465 µM	> 100 µM	0.314 µM	> 100 µM	0.426 µM	> 100 µM
COc1ccc2c(c1)[n+]([O-])c(/C(C)=N/NC(N)=S)c(C)[n+]2[O-]	–	> 100 µM	–	> 100 µM	–	> 100 µM	–	> 100 µM	–	> 100 µM	–	> 100 µM	–	> 100 µM	–	> 100 µM	–	> 100 µM	–	> 100 µM
C=CC1CC12C(=O)C1OC2(C)C2C(=O)c3c(O)cccc3C(=O)C12 (stereo unspecified)	39.8 µM	> 100 µM	45.6 µM	> 100 µM	72.4 µM	> 100 µM	–	–	25.7 µM	81.5 µM	39.7 µM	> 100 µM	–	–	13.1 µM	31.8 µM	18 µM	66.3 µM	70 µM	> 100 µM
O=c1ncc(I)c[nH]1	> 100 µM	> 100 µM	> 100 µM	> 100 µM	> 100 µM	> 100 µM	> 100 µM	> 100 µM	> 100 µM	> 100 µM	> 100 µM	> 100 µM	> 100 µM	> 100 µM	> 100 µM	> 100 µM	> 100 µM	> 100 µM	> 100 µM	> 100 µM
CCCCCCCC(=O)SCC/C=C/[C@@H]1CC(=O)NCc2cccc(n2)C2=N[C@@](C)(CS2)C(=O)N[C@@H](C(C)C)C(=O)O1	0.0192 µM	0.845 µM	0.21 µM	> 9.23 µM	0.029 µM	> 33.3 µM	0.193 µM	> 33.3 µM	0.0437 µM	> 33.3 µM	0.0262 µM	0.361 µM	0.0623 µM	0.546 µM	0.174 µM	–	0.0719 µM	5.95 µM	0.0362 µM	> 33.3 µM
CCC1CCC2C3CC=C4CC(OC(C)=O)C(N)CC4(C)C3CCC12C (stereo unspecified)	–	6.67 µM	–	39.7 µM	–	5.51 µM	–	8.3 µM	–	7.97 µM	–	6.1 µM	–	8.03 µM	–	22.9 µM	–	8.64 µM	–	5.13 µM
C[C@@]1([C@H](OC(=O)c2cccc3ccccc23)C(N)=O)CO1	–	6 µM	1.46 µM	5.9 µM	5.9 µM	37.1 µM	0.668 µM	9.04 µM	3.2 µM	22.8 µM	3.6 µM	14.8 µM	0.427 µM	9.28 µM	5.56 µM	> 100 µM	2.09 µM	10.8 µM	2.12 µM	> 20.7 µM
